Measurements published in publication PMC12389586, “Anticancer Activity of Paclitaxel-Loaded Mesoporous Silica Nanoparticles in B16F10 Melanoma-Bearing Mice” (Pharmaceutics, 2025).

Legend:
[1] = test system: B16F10 spheroids; assay: Cytotoxicity and PTX accumulation in 3D cultured spheroid; type: cell-based; conditions: for spheroid growth / radius: 5 days, PTX 25 µg/mL or equivalent, CUR 200 µg/mL, TPGS 600 µg/mL, SMB7 200 µg/mL
Procedure: B16F10 cells were seeded at a density of 3 × 10^5 cells per well in an ultra-low attachment 96-well plate to facilitate spheroid formation. Immediately after seeding, the plate was centrifuged at […] for 15 min to promote cell aggregation. Following centrifugation, the spheroids were allowed to stabilize for 24 h before drug treatment. The spheroids were treated with the following conditions and grown for 5 days: control, 200 μg/mL of SMB7, 200 μg/mL of curcumin, 25 μg/mL of PTX, PS (equivalent to 25 μg/mL PTX), PS with curcumin (equivalent to 25 μg/mL PTX + 200 μg/mL curcumin), and PS with TPGS (equivalent to 25 μg/mL PTX + 600 μg/mL TPGS).
During the culture period, the spheroid radius was measured daily to assess tumor growth inhibition across different treatment groups. After five days, the spheroids were harvested, disrupted into a single-cell suspension, and analyzed for intracellular PTX and curcumin concentrations using LC–MS/MS. Additionally, the culture medium was collected from each well and analyzed to quantify the remaining extracellular concentrations of PTX and curcumin, providing further insights into drug uptake and retention within the spheroids.

[2] = test system: β-tubulin; assay: Confocal staining of β-tubulin and nuclei; type: cell-based; conditions: B16F10 cells, 24 h; PTX 25 µg/mL or equivalent, CUR 200 µg/mL, TPGS 600 µg/mL, SMB7 200 µg/mL
Procedure: B16F10 cells were seeded at a density of 4 × 10^4 cells per well in a 24-well plate and cultured until a confluency of 80% was reached. Once the desired confluency was achieved, the culture medium was replaced with fresh media containing the following respective treatments: control, 200 μg/mL of SMB7, 200 μg/mL of curcumin, 25 μg/mL of PTX, PS (equivalent to 25 μg/mL PTX), PS with curcumin (equivalent to 25 μg/mL PTX + 200 μg/mL curcumin), and PS with TPGS (equivalent to 25 μg/mL PTX + 600 μg/mL TPGS).
Cells were incubated post-treatment for 24 h and then fixed and stained to visualize intracellular structures. DAPI was used for DNA staining to highlight nuclear morphology, and goat anti-Mouse IgG conjugated with FSD 594 was employed for β-tubulin staining to observe microtubule organization. As PTX primarily acts by stabilizing microtubules, fluorescence images were acquired using an LSM700 confocal laser scanning microscope (Carl Zeiss GmbH, Oberkochen, Germany). Confocal images were acquired at 100 × magnification to enhance the visualization of DNA and β-tubulin structures, enabling the assessment of PTX-induced cytoskeletal disruption and apoptosis-related nuclear changes.

[3] = In vitro drug release test (dialysis pouch); type: physicochemical; conditions: over 48 h; SBF pH 7.4, release medium SBF + 0.5% Tween 80
Procedure: The in vitro drug release of PTX from the formulation was measured as follows: PTX and PS (all containing 2 mg PTX) were placed in the cellulose membrane pouch (Snakeskin^TM Dialysis Tubing 10,000 MWCO; Thermo Fisher Scientific Inc.; Waltham, MA, USA), and 5 mL of SBF (pH 7.4) was added inside the cellulose membrane pouch. The cellulose membrane pouch was put into 50 mL of SBF containing 0.5% Tween 80 in a 250 mL beaker and shaken at 100 rpm in a dual-motion shaker (Finepcr; Gunpo-si, Republic of Korea). Samples (100 μL aliquots) were collected for 48 h, and then diluted 100-fold with mobile phase and injected into the LC-MS/MS system to measure the PTX concentration.
In this study, PS in 5 mL SBF was placed in a dialysis pouch, while the exterior release medium consisted of 50 mL of SBF + 0.5% Tween 80. This large external volume and surfactant content allowed the PTX released from the pouch to diffuse into the external medium and remain dissolved.

[4] = test system: B16F10 cells; assay: Cell viability (MTT assay); type: cell-based; conditions: Mus musculus, B16-F10, 48 h exposure, 0–1000 nM PTX or equivalent
Procedure: B16F10 cells were seeded at a density of 4 × 10^4 cells per well in a 96-well plate and incubated at 37 °C in a 5% CO2 atmosphere for 24 h to allow cell attachment and stabilization before drug administration. After 24 h, the medium was replaced with fresh culture media containing various PTX formulations (i.e., PTX, PS, PS with CUR, PS with TPGS, and PS with verapamil) at increasing concentrations (0, 10, 20, 50, 100, 200, 500, and 1000 nM) of PTX or its equivalent amount.
After 48 h of drug exposure, MTT reagent (0.5 mg/mL in PBS, 15 μL) was added to each well, followed by an additional 4 h incubation to allow mitochondrial dehydrogenase enzymes in viable cells to reduce MTT into insoluble formazan crystals. The resulting formazan was then solubilized using 150 μL DMSO, and the absorbance was measured at 592 nm using an ultraviolet (UV) spectrophotometer. Cell viability was calculated relative to the untreated control group. Data were fitted using the inhibitory effect model v=Emax(1−[I]/IC50+[I]) . Emax and IC50 represent uninhibited cell viability (%) and the concentration of PTX (nM) at which half-maximal inhibition occurs. [I] represents the concentration of PTX.

[5] = test system: B16F10 cells; assay: Apoptosis analysis by flow cytometry (Annexin V); type: cell-based; conditions: 24 h; equivalent to 25 μg/mL PTX (+200 μg/mL CUR, +600 μg/mL TPGS)
Procedure: B16F10 cells were seeded at a density of 8 × 10^4 cells in a cell culture dish and cultured until a confluency of 80% was reached. Upon reaching the desired confluency, the culture medium was aspirated and replaced with fresh medium containing one of the following treatments: control, PTX (25 μg/mL), PS (equivalent to 25 μg/mL PTX), PSC (equivalent to 25 μg/mL PTX + 200 μg/mL curcumin), and PSCT (equivalent to 25 μg/mL PTX + 200 μg/mL curcumin + 600 μg/mL TPGS).
After 24 h of treatment, the culture supernatant was collected into a 15 mL conical tube. Cells were then detached using 1.5 mL of trypsin, and the resulting cell suspension—including detached cells and debris—was combined with the previously collected medium in the same tube. The samples were centrifuged at 1000 rpm for 3 min, and the supernatant was carefully discarded. The cell pellet was resuspended in 1 mL of DMEM supplemented with 10% FBS and 1% penicillin–streptomycin. Subsequently, 100 μL of the Muse Annexin V and Dead Cell kit (Cytek Biosciences Inc., Fremont, CA, USA) was added to the cell suspension, and the samples were incubated at room temperature in the dark for 20 min. Apoptosis and cell viability were then assessed using the Guava® Muse® Cell Analyzer (Cytek Biosciences Inc., Fremont, CA, USA).

[6] = Biodistribution in B16F10 melanoma-bearing mice; type: in vivo, C57BL/6 mice; conditions: C57BL/6, mouse, subcutaneous, heart, lung, kidney, pancreas, liver and tumor tissues, read-out: PTX tissue concentration relative to plasma
Procedure: After the final injection, the mice from PTX + CUR, PSC, and PSCT groups were randomly subdivided into two time points (n = 5 for each subgroup; 2 h and 8 h post-administration) for pharmacokinetic and biodistribution analyses. At the designated time points (0.25, 1, and 2 h from the 2 h group; 0.5, 4, and 8 h from the 8 h group), blood samples (approximately 80 µL) were collected from the retro-orbital plexus of mice. For the PTX and CUR analyses, 30 µL of plasma aliquots were stored at −80 °C. At 2 h, the mice were anesthetized, and the organs (heart, lung, liver, kidney, pancreas, and tumor) were harvested, weighed, and homogenized using a MM400 Laboratory Ball Mixer Mill (Retsch, Haan, Germany). Aliquots (50 µL) of 20% tissue homogenates prepared using 10% MeOH were stored at −80 °C for subsequent analyses. […]
The biodistribution of PTX in various mouse tissues was quantified and expressed as a percentage of the injected dose per gram of tissue (%ID/g). […] The following formula was used to calculate the drug concentration in the tissue, which is measured (e.g., ng), normalized to the total injected dose, and further corrected based on the weight of the harvested tissue to standardize drug accumulation across different organs as follows: %ID/g=Drug amount in each organmg/Injected Dose mg×100×1/Organ weight (g) .

[7] = after 5 days of treatment, equivalent to 25 μg/mL PTX

| Structure (SMILES) | spheroid growth / radius [1] | β-tubulin expression (microtubule integrity) [2] | drug release [3] | IC50 [4] | Incorporated PTX [1, 7] | PTX concentration (intracellular accumulation in spheroids) [1, 7] | early apoptosis [5] | late apoptosis (Late Apop./Dead) [5] | total apoptosis rate [5] | Kp at 2 h [6] |
| --- | --- | --- | --- | --- | --- | --- | --- | --- | --- | --- |
| COc1cc(/C=C/C(=O)CC(=O)/C=C/c2ccc(O)c(OC)c2)ccc1O [CUR, Curcumin] | significantly suppressed the tumor growth of B16F10 spheroids | moderate reduction in β-tubulin expression | – | – | – | – | – | – | – | – |
| CC(=O)O[C@H]1C(=O)[C@@]2(C)[C@H]([C@H](OC(=O)c3ccccc3)[C@]3(O)C[C@H](OC(=O)[C@H](O)[C@@H](NC(=O)c4ccccc4)c4ccccc4)C(C)=C1C3(C)C)[C@]1(OC(C)=O)CO[C@@H]1C[C@@H]2O [PTX, Paclitaxel] | significantly suppressed the tumor growth of B16F10 spheroids | pronounced decrease in β-tubulin intensity | 6.58% | 283 nM | 20.3% | 5.09 ± 0.16 µg/mL | 11.5% | 9.8% | 21.3% | > 100 |
